Results published in patent US20190225670A1, “COMPOUNDS AND METHODS FOR ACTIVATING TIE2 SIGNALING” (ASCLEPIX THERAPEUTICS, LLC, priority 2016, published 2019).

Tests used:
VE-cadherin = VE-cadherin western blot and immunofluorescence in MEC monolayers; format: cell-based, human
Experimental: The jaggedness of these junctions is related to the structure of actin within the cell.
Glass-bottomed, 96-well plates with half well size were coated with 10 μg/ml FN1 for two hours at 37° C. The FN1 solution was then removed by aspiration and the plate seeded with 4×10^3 MECs in EGM-2MV media. After twenty-four hours, the cells were washed once with dPBS containing Ca^2+ and Mg^2+ to remove dead cells and the cells were allowed to grow for an additional twenty-four hours. For three-hour duration treatments (i.e., VE-cadherin), cells were washed twice with dPBS containing Ca^2+ and Mg^2+ and serum starved in EBM-2 for ninety minutes. The media was then removed and the cells were treated for three hours with 100 μl of EBM-2 media containing 200 ng/ml Ang2 or PBS and varying concentrations of AXT107 or DMSO. For fifteen minute-treated samples (i.e., phospho-Tie2), the cells were serum starved in EBM-2 media for 165 minutes, incubated for ninety minutes with varying concentrations of AXT107 or DMSO in EBM-2, and finally stimulated for fifteen minutes with 200 ng/ml Ang2 or PBS supplemented with peptide to retain the same concentrations. These times were chosen so that both treatment procedures would be completed at the same time. The cells were then washed twice with cold dPBS containing Ca^2+ and Mg^2+ and fixed in 10% neutral buffered formalin for fifteen minutes. […]

[1] = test system: VEGFR2, c-Met, IGF1R, and PDGFRβ; details: Lee et al., Sci Rep. 2014; cited from earlier work
integrin α5β1 = integrin α5β1 (Homo sapiens, UniProt P05556+P08648); details: Lee et al., Sci Rep. 2014; cited from earlier work
Chain of integrin α5β1 (P08648 42-1049): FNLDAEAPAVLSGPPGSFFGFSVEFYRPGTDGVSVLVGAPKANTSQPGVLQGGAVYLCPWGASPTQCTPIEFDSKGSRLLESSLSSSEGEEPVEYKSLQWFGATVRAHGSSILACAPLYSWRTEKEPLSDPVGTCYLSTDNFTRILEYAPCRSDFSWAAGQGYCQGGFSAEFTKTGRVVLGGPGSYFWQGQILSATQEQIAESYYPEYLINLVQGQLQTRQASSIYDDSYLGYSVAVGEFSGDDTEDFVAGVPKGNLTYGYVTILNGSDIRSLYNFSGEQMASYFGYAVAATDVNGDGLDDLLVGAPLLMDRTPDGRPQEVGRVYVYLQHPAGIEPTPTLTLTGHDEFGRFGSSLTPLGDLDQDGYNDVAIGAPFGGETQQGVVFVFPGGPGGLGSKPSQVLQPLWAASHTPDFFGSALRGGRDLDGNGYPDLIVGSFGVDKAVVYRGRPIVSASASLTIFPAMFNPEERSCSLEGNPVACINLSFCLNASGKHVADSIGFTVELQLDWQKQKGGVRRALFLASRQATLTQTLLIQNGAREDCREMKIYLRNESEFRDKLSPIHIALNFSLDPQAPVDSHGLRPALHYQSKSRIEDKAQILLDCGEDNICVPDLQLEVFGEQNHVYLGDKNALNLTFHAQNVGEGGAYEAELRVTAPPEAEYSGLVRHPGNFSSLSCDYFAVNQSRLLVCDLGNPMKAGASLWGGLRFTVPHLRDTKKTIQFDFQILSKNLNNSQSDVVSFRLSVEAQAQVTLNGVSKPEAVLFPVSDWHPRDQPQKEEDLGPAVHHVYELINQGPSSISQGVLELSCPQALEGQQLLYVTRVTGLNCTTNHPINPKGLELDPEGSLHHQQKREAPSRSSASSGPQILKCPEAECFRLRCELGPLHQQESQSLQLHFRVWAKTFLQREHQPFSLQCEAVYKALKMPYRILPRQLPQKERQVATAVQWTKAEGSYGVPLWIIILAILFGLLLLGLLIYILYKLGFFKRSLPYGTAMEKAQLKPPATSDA
Chain of integrin α5β1 (P05556 21-798): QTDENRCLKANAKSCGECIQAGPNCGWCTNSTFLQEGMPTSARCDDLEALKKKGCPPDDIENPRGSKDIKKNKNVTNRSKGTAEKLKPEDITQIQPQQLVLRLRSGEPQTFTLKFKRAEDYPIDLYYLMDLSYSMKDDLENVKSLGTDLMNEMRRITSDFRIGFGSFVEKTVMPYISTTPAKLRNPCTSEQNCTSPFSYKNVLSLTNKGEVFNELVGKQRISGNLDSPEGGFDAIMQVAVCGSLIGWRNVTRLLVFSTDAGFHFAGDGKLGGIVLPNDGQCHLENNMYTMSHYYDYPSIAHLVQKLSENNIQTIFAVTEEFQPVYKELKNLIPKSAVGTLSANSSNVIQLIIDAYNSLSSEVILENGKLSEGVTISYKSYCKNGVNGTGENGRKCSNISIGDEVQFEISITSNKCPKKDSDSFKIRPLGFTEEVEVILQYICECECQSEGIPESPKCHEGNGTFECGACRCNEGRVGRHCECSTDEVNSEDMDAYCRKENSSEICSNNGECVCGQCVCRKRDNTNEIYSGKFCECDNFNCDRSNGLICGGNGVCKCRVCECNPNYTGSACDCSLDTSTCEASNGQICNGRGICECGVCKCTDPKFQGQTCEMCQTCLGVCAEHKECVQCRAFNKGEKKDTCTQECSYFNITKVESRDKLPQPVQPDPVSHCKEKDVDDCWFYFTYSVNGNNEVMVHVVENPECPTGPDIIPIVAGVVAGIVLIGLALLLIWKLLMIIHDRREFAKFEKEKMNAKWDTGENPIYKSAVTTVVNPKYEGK

Erk1/2 = experiment: Western blot of phospho-Erk1/2 in MEC lysates treated with Ang2 and AXT107; format: cell-based, human; details: AXT107 and Ang2, all tested conditions
Experimental: For Ang1/2 signaling investigations, cell culture dishes (10 cm diameter) were coated with 5 μg/ml fibronectin (FN1; Sigma-Aldrich, St. Louis, Mo.) for two hours at 37° C. The FN1 solution was then removed by aspiration and 5×10^6 microvascular endothelial cells (MECs; Lonza, Walkersville, Md.) were plated in EGM-2MV media (Lonza) and cultured for forty-eight hours at 37° C. The cells were then serum starved for sixteen hours in serum-free EGM-2 base media (Lonza). AXT107 (0-100 μM, as indicated) was subsequently added to each culture and incubated for seventy-five minutes at 37° C. The cultures were then treated with 1 mM sodium vanadate (New England Biolabs, Ipswich, Mass.) for fifteen minutes to enhance the phospho-Tie2 signal followed by stimulation with 200 ng/ml angiopoietin (R&D Systems, Minneapolis, Minn.) for an additional fifteen minutes. […] Specific proteins were identified by Western blot, using the following primary antibodies: Cell Signaling—phospho-Tie2 (Y992) (Cat#: 4221), Tie2 (Cat#: 7403), phospho-Stat3 (Y705) (Cat#: 4113), Stat3 (Cat#: 4904), phospho-Akt (S473) (Cat#: 4058), Akt (Cat#: 9272), phospho-p44/42 MAPK (T202/Y204) (Cat#: 4370), p44/42 MAPK (Cat#: 4695); BD Transduction Laboratories—β1 integrin (Cat#: 610467); Millipore—α5 integrin (Cat#: AB1928) and detected with HRP-conjugated goat anti-rabbit and sheep anti-mouse secondary antibodies (GE healthcare).

MEC monolayers = experiment: FITC Transwell permeability assay; format: cell-based, human
Experimental: The integrity of these junctions is also important for the regulation of monolayer permeability by controlling the size of intercellular openings. The effect of the AXT107 on EC permeability was further investigated by the transendothelial diffusion of FITC-labeled dextran across MEC monolayers seeded onto permeable Transwell® substrates.
Transwell, twenty-four-well inserts (Corning) were coated with 7.5 μg/cm^2 FN1 for two hours at 37° C., aspirated, and then dried for thirty minutes at room temperature. Wells were then seeded with 7.5×10^4 MECs in 100 μl of EBM-2 media (without phenol red) and allowed to settle for thirty minutes at room temperature. 1 ml of EGM-2 media was then added to the bottom chamber and an additional 200 μl to the top chamber. The plate was incubated for twenty-four hours at 37° C. after which the media was aspirated and an additional 7.5×10^4 MECs were plated in each well as described above. After forty-eight hours at 37° C., the media was aspirated from both chambers and the cells were washed twice in dPBS containing Ca^2+ and Mg^2+, once with EBM-2 media (without phenol red) and serum starved in EBM-2 media applied to both chambers for two hours at 37° C. After this incubation, 100 μM AXT107 or an equivalent amount of DMSO vehicle was added and incubated for an additional ninety minutes. In the top chamber, the cells were then treated with 200 ng/ml Ang2, 100 ng/ml VEGFA, both, or PBS control and in the bottom chamber, the cells were then treated with 25 μg/ml FITC-Dextran (40 kDa MW). AXT107 was also added in both chambers to maintain a concentration of 100 μM. After three hours, 10 μl was removed from the top chamber of each well and mixed with 90 μl of water in a clear bottom, 96-well plate. Fluorescence values for each sample were calculated using a Perkin Elmer plate reader.

**Q.** For LRRFSTAPFAFIDINDVINF [AXT107], which “distribution of VE-cadherin at junctions” value (VE-cadherin; 200 ng/ml Ang2, increasing concentrations of AXT107) is on record?
**A.** became progressively smoother

**Q.** And the “total level of VE-cadherin” value (VE-cadherin; three hours of AXT107 and 200 ng/ml Ang2)?
**A.** remained unchanged

**Q.** What about the “receptor phosphorylation and downstream signals of RTKs” value [1] of the same sequence?
**A.** significantly decreases

**Q.** What about the “binding to integrin α5β1” value (integrin α5β1) of the same sequence?
**A.** binds tightly

**Q.** What about the Erk1/2 phosphorylation (Erk1/2) of the same sequence?
**A.** remained constant

**Q.** What about the “FITC-dextran diffusion into the top chamber” value (MEC monolayers; Ang2 alone added to monolayers pre-incubated with 100 μM AXT107, vs growth factor alone) of the same sequence?
**A.** significant decrease

**Q.** What about the “FITC-dextran diffusion into the top chamber” value (MEC monolayers; Ang2 in combination with VEGF, monolayers pre-incubated with 100 μM AXT107, vs growth factors alone) of the same sequence?
**A.** significant decrease

**Q.** And the FITC-dextran diffusion (MEC monolayers; VEGF in presence vs absence of peptide)?
**A.** similar, but non-significant trend

**Q.** And the “FITC-dextran diffusion across the monolayer, single treatment” value (MEC monolayers; each agent alone)?
**A.** influenced FITC-dextran diffusion across the monolayer
